From publication PMC8533333, “Melatonin Analogues Potently Inhibit MAO-B and Protect PC12 Cells against Oxidative Stress” (Antioxidants, 2021)

Columns and labels:
[1] = system: LPO in rat brain homogenates; experiment: Lipid peroxidation (LPO) induced by Fe2+ and L-ascorbic acid in rat forebrain homogenates; type: biochemical; conditions: 100 μM; Fe2+ 10 µM and L-ascorbic acid 100 µM
Procedure: The effects of the investigated compounds on the LPO levels in rat forebrain homogenates were evaluated as previously described. Sprague–Dawley (SD) rats were obtained from Daehan Biolink (Chungbuk, Korea) and maintained in the animal facility with controlled temperature (22 ± 2 °C) and relative humidity (40–60%). All the experimental steps and protocols of the animal experiments were approved by the Institutional Animal Ethical Committee of Dongguk University (Approval Number: IACUC-2019-001-2). To initiate LPO reaction, 3–4 mg protein/mL diluent of SD rat forebrain homogenates in 20 mM Tris-HCl buffer (pH 7.4) and several concentrations of the tested compounds dissolved in DMSO were added to a reaction mixture with 10 µM Fe^2+ and 100 µM L-ascorbic acid and incubated for 60 min at 37 °C. After halting the reaction by adding 28% w/v trichloroacetic acid and 1% w/v TBA in succession, the solution was heated for 15 min at 100 °C, which was followed by centrifugation at 3000 rpm for 10 min at 4 °C to separate the precipitates. […] The percentage of inhibition was calculated by the following formula:Inhibition (%) = 100 × (1 − Abssample/Abscontrol) (Abscontrol, the absorbance of control without tested compounds; Abssample, the absorbance of sample with tested compounds). […]

[2] = system: PC12 cells; conditions: ZnPP 0.2 µM, 6-OHDA 50 µM 24 h
Procedure: Control cells were incubated in an equivalent volume of DMSO to a final concentration of 0.3%. Neuroprotective effects of the tested compounds on the toxicity induced by 6-OHDA or rotenone in PC12 cells were evaluated as described previously with slight modifications. In brief, cells were pre-treated with the tested compounds or rasagiline at the indicated concentrations for 4 h. Next, they were exposed to 6-OHDA (50 μM) or rotenone (1 μM) for 24 h. In another set of experiments, the influence of HO-1 inhibitor, ZnPP, on the neuroprotective effects of the tested compounds against 6-OHDA-induced oxidative damage was investigated as previously reported. Briefly, the cells were pre-treated with the tested compounds for 4 h and then incubated with 0.2 µM of ZnPP for 30 min. Subsequently, 6-OHDA was added at a final concentration of 50 µM and incubated for 24 h.
After the desired treatment, cell viability was determined by MTT assay as described previously. Briefly, MTT was added to the cells at the final concentration of 0.5 mg/mL, which was followed by incubation for 3 h at 37 °C. […] The absorbance of the dissolved solution was measured at 550 nm using a microplate reader (SpectraMax M2^e, Molecular Devices, Sunnyvale, CA, USA). The cell viability was presented as the percentage of the absorbance measured in the vehicle-treated control cells.

| SMILES | inhibition of lipid peroxide formation (LPO) [1] [%] | effect of ZnPP on protective effects against 6-OHDA-induced toxicity [2] |
| --- | --- | --- |
| O=C(Nc1ccc2[nH]ccc2c1)c1cccc(Br)c1 [3r, 3-Bromo-N-(1H-indol-5-yl)benzamide] | 44.4 ± 2.2 | completely abolished |
| O=C(Nc1ccc2[nH]ccc2c1)c1cccc(Cl)c1 [3n, 3-Chloro-N-(1H-indol-5-yl)benzamide] | 23.5 ± 1.7 | completely abolished |
